Laboratory results: patent US20200270309A1, “MALEIMIDE GROUP-MODIFIED ANGIOGENESIS INHIBITOR HM-1 AND USE THEREOF” (NANJING ANJI BIOLOGICAL TECHNOLOGY CO., LTD, priority 2017, published 2020)
Marks after values point to notes of the source that are not given here. Peptide text beside a SMILES is read from it. * marks the point of attachment. X64 = O=C1C=CC(=O)N1c1cccc(CCCCCCCCCC(=O)*)c1; X59 = O=C1C=CC(=O)N1c1cccc(CCCCCCCCC(=O)*)c1; X66 = O=C1C=CC(=O)N1c1cccc(CCCCCCCC(=O)*)c1

How the values were obtained:
[1] = Half-lives and pharmacokinetic parameters of polypeptides vs HM-1; settings: in vivo; for half-life: T1/2β (half-life)
HUVECs = assay: Transwell migration inhibition on HUVECs; type: cell-based, human; settings: for Inhibition rate (%): HUVEC migration vs blank control; for Cell migration number (Mean ± SD): HUVECs, transwell, 24 h
[2] = system: xylene-induced ear swelling; assay: Xylene-induced mouse ear swelling; type: in vivo; settings: Kunming mice, injected once a day for 5 days; for Swelling degree (mg) / Swelling degree: right minus left ear piece weight 2 h after xylene; for Inhibition rate (%): xylene-induced ear swelling
Outline: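 Kunming mice dosed by injection once daily for 5 days; 1 h after last dose, 0.05 mL xylene applied to right ear, left ear untreated. Mice killed 2 h later; punched ear pieces weighed. Swelling degree = right minus left ear weight; swelling rate = swelling degree/left ear weight ×100%.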

[3] = system: collagen-induced arthritis; assay: Mouse collagen-induced arthritis (CIA) animal model; type: in vivo; settings: DBA/1 mice CIA model, dose 4.0 mg/kg, subcutaneous from day 30, n=10; for Clinical score: highest score 16
[4] = system: human retinal capillary endothelial cells (HRCECs); assay: MTT proliferation inhibition on HRCECs; type: cell-based; settings: 48 h; for A570 nm-A630 nm: mean±SD
Outline: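 HRCECs seeded at 3.0×10^4 cells/mL, adhered overnight, then exposed to polypeptide for 48 h at 37 °C, 5% CO2. MTT added 4 h, formazan dissolved in DMSO, absorbance 570/630 nm; PIR (%) = 1 − treated/negative control, mean±SD of three independent runs.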

[5] = system: corneal neovascularization; assay: Corneal neovascularization induced by alkali burn in BALB/c mice; type: in vivo; parameters: Inhibition rate (corneal neovascularization): concentration or dose not given beside the values; settings: day 14 after alkali burn, vitreous injection once a day for 1 week
[6] = system: choroidal neovascularization; assay: Choroidal neovascularization in rats (laser photocoagulation, FFA); type: in vivo; settings: BN rats
Outline: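 Male BN rats aged 6-8 weeks were given 8 krypton-laser spots around the optic disc (647.1 nm, 350 mW, 50 μm, 0.05 s). Once the model was confirmed, groups of 5 got daily intravitreal compound at 0.05 μM or saline for 1 week. FFA followed at 3, 7, 14 and 28 days after dosing.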

[7] = system: retinal neovascularization (OIR model); assay: Retinal vessels in OIR mice; type: in vivo, C57/B16 mice; settings: for Area of neovascular plexus (mm^2): dose 0.05 μM in the vitreous chamber on day 13, retinal vessels evaluated on day 17; for Inhibition rate (%): dose 0.05 μM in the vitreous chamber on day 13, retinal vessels evaluated on day 17, vs negative control
Outline: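 C57/B16 pups were held in 75% oxygen from postnatal day 7 to 12, then returned to room air. On day 13 they received intravitreal saline or compound. On day 17 perfused vessels were labelled by Texas red tomato agglutinin injected into the left ventricle (5 min circulation) and retinal vasculature assessed.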

[8] = day 3 after administration, total light spot number was 297, 0.05 μM in the vitreous chamber once a day for 1 week
[9] = day 7 after administration, total light spot number was 186, 0.05 μM in the vitreous chamber once a day for 1 week
[10] = day 14 after administration, total light spot number was 137, 0.05 μM in the vitreous chamber once a day for 1 week
[11] = day 28 after administration, total light spot number was 69, 0.05 μM in the vitreous chamber once a day for 1 week

SMILES	AUC(0-inf) [1]	MRT inf [1]	clearance [1]	half-life [1]	Inhibition rate (%) (HUVECs; dose 0.05 μM)	Inhibition rate (%) (HUVECs; dose 0.1 μM)	Inhibition rate (%) (HUVECs; dose 0.2 μM)	Swelling degree (mg) ([2]; dose 4 mg/kg)	Inhibition rate (%) ([2]; dose 4 mg/kg)	Swelling degree (mg) ([2]; dose 8 mg/kg)	Inhibition rate (%) ([2]; dose 8 mg/kg)	Joint swelling degree (mm) [3]	Left and right paw swelling degree (mm) [3]	Clinical score [3]	Inhibition rate (%) ([4]; dose 0.05 μM)	A570 nm-A630 nm ([4]; dose 0.05 μM)	Inhibition rate (%) ([4]; dose 0.1 μM)	A570 nm-A630 nm ([4]; dose 0.1 μM)	Inhibition rate (%) ([4]; dose 0.2 μM)	A570 nm-A630 nm ([4]; dose 0.2 μM)	further results
C[C@H](NC(=O)CNC(=O)[C@H](CCCNC(=N)N)NC(=O)CCCCCCCc1cccc(N2C(=O)C=CC2=O)c1)C(=O)N[C@@H](CC(=O)O)C(=O)N[C@@H](CCCNC(=N)N)C(=O)N[C@@H](C)C(=O)NCC(=O)NCC(=O)NCC(=O)NCC(=O)N[C@@H](CCCNC(=N)N)C(=O)NCC(=O)N[C@@H](CC(=O)O)C(=O)O [X31] (X66-RGADRAGGGGRGD-OH)	28600 ± 6960 ng·h/mL	51.3 ± 11.3 h	0.582 mL/min/kg	35.58 ± 0.31 h	40.18%	46.67%	55.21%	4.22 ± 0.51** mg	32.26%	5.18 ± 0.71** mg	49.28%	0.78 ± 0.15 mm	0.77 ± 0.15 mm	8.75 ± 1.38	41.92%*	0.7676 ± 0.04187	45.65%**	0.7183 ± 0.03361	63.50%*	0.4824 ± 0.04754	Cell migration number (Mean ± SD) (HUVECs; dose 0.05 μM): 641.17 ± 61.85; Cell migration number (Mean ± SD) (HUVECs; dose 0.1 μM): 571.62 ± 42.83; Cell migration number (Mean ± SD) (HUVECs; dose 0.2 μM): 480.05 ± 67.72; Inhibition rate (corneal neovascularization) [5]: 45.42%; MVD (corneal microvessel density) [5]: 36.70 ± 5.505; CNV Incidence (%) [6, 8]: 53.54%; Leakage Light spot number [6, 8]: 159; CNV Incidence (%) [6, 9]: 46.77%; Leakage Light spot number [6, 9]: 87; CNV Incidence (%) [6, 10]: 41.61%; Leakage Light spot number [6, 10]: 57; CNV Incidence (%) [6, 11]: 44.93%; Leakage Light spot number [6, 11]: 31; Area of neovascular plexus (mm^2) [7]: 0.101 ± 0.013 mm^2; Inhibition rate (%) [7]: 52.83%**
C[C@H](NC(=O)CNC(=O)[C@H](CCCNC(=N)N)NC(=O)CCCCCCCCc1cccc(N2C(=O)C=CC2=O)c1)C(=O)N[C@@H](CC(=O)O)C(=O)N[C@@H](CCCNC(=N)N)C(=O)N[C@@H](C)C(=O)NCC(=O)NCC(=O)NCC(=O)NCC(=O)N[C@@H](CCCNC(=N)N)C(=O)NCC(=O)N[C@@H](CC(=O)O)C(=O)O [X32] (X59-RGADRAGGGGRGD-OH)	30900 ± 7750 ng·h/mL	55.3 ± 11.8 h	0.54 mL/min/kg	38.33 ± 0.31 h	41.92%	47.67%	56.61%	4.83 ± 0.02* mg	22.47%	3.69 ± 0.56** mg	40.77%	0.81 ± 0.16 mm	0.81 ± 0.13 mm	9.06 ± 1.26	52.91%*	0.6224 ± 0.08338	54.38%**	0.6030 ± 0.05575	69.51%*	0.4030 ± 0.00097	Cell migration number (Mean ± SD) (HUVECs; dose 0.05 μM): 622.57 ± 49.41; Cell migration number (Mean ± SD) (HUVECs; dose 0.1 μM): 560.86 ± 50.91; Cell migration number (Mean ± SD) (HUVECs; dose 0.2 μM): 465.06 ± 48.23; Swelling degree ([2]; dose 2 mg/kg): 5.17 ± 0.06 mg; Inhibition rate (%) ([2]; dose 2 mg/kg): 17.01%; Inhibition rate (corneal neovascularization) [5]: 50.25%; MVD (corneal microvessel density) [5]: 33.45 ± 6.453; CNV Incidence (%) [6, 8]: 54.21%; Leakage Light spot number [6, 8]: 161; CNV Incidence (%) [6, 9]: 46.24%; Leakage Light spot number [6, 9]: 86; CNV Incidence (%) [6, 10]: 43.07%; Leakage Light spot number [6, 10]: 59; CNV Incidence (%) [6, 11]: 42.03%; Leakage Light spot number [6, 11]: 29; Area of neovascular plexus (mm^2) [7]: 0.096 ± 0.001 mm^2; Inhibition rate (%) [7]: 54.72%**
C[C@H](NC(=O)CNC(=O)[C@H](CCCNC(=N)N)NC(=O)CCCCCCCCCc1cccc(N2C(=O)C=CC2=O)c1)C(=O)N[C@@H](CC(=O)O)C(=O)N[C@@H](CCCNC(=N)N)C(=O)N[C@@H](C)C(=O)NCC(=O)NCC(=O)NCC(=O)NCC(=O)N[C@@H](CCCNC(=N)N)C(=O)NCC(=O)N[C@@H](CC(=O)O)C(=O)O [X33] (X64-RGADRAGGGGRGD-OH)	34000 ± 7620 ng·h/mL	60.8 ± 12 h	0.49 mL/min/kg	42.15 ± 0.26 h	42.63%	47.45%	54.20%	5.15 ± 0.19* mg	29.21%	4.41 ± 0.9** mg	48.31%	0.82 ± 0.11 mm	0.74 ± 0.17 mm	9.08 ± 1.25	42.66%*	0.7579 ± 0.03744	46.86%**	0.7024 ± 0.04477	62.24%*	0.4991 ± 0.04854	Swelling degree ([2]; dose 2 mg/kg): 3.22 ± 0.59 mg; Inhibition rate (%) ([2]; dose 2 mg/kg): 17.34%; Inhibition rate (corneal neovascularization) [5]: 47.20%; MVD (corneal microvessel density) [5]: 35.50 ± 3.223; CNV Incidence (%) [6, 8]: 54.21%; Leakage Light spot number [6, 8]: 161; CNV Incidence (%) [6, 9]: 46.24%; Leakage Light spot number [6, 9]: 86; CNV Incidence (%) [6, 10]: 45.26%; Leakage Light spot number [6, 10]: 62; CNV Incidence (%) [6, 11]: 37.68%; Leakage Light spot number [6, 11]: 26; Area of neovascular plexus (mm^2) [7]: 0.089 ± 0.029 mm^2; Inhibition rate (%) [7]: 58.02%**
